# Molecular target: T1, Orexin/Hypocretin receptor type 1 (Rattus norvegicus, UniProt P56718)
# T1 sequence (P56718 whole entry): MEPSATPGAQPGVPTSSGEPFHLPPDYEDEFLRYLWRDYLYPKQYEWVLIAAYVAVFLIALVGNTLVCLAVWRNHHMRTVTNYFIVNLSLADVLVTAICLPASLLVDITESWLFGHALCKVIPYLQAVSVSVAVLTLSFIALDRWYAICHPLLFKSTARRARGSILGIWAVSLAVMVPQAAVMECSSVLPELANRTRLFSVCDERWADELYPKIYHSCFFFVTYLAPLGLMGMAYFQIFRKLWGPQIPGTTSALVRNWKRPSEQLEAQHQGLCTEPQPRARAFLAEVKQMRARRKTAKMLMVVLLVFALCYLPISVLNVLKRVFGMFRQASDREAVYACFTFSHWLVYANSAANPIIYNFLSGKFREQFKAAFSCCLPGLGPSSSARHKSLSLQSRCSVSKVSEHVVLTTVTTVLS
# Assay: Radioligand Binding Assay: Compound potency can be assessed by a radioligand binding assay (described in Bergman et. al. Bioorg. Med. Chem. Lett. 2008, 18, 1425-1430) in which the inhibition constant (Ki) is determined in membranes prepared from CHO cells expressing either the orexin-1 (OX1) or orexin-2 (OX2) receptor.
# Type: cell membranes
row,Ki,Structure (SMILES)
1,150 nM,Cc1ccc(-n2nccn2)c(C(=O)N2CC(COc3ccc(F)cn3)CCCC2C)c1 (centres undefined)
2,15 nM,Cc1ccc(-n2nccn2)c(C(=O)N2CCCCC(COc3ccc(F)c(C)c3)C2)c1 (centres undefined)
3,39 nM,Cc1cc(OCC2COCC(C)N(C(=O)c3ccccc3-n3nccn3)C2)ccc1F (centres undefined)
4,73 nM,Cc1ccc(-c2nccs2)c(C(=O)N2CC(COc3ccc(F)cn3)CCCC2C)c1 (centres undefined)
5,5.1 nM,Cc1ccc(-n2nccn2)c(C(=O)N2CC(COc3ccc(F)c(C)c3)COCC2C)c1 (centres undefined)
6,42 nM,Cc1ccc(-c2ncccn2)c(C(=O)N2CC(COc3ccc(F)c(C)c3)CCCC2C)c1 (centres undefined)
7,8.7 nM,Cc1ccc(-n2nccn2)c(C(=O)N2CC(COc3ccc(F)c(C)c3)CCCC2C)c1 (centres undefined)
8,310 nM,Cc1ccc(-c2ncccn2)c(C(=O)N2CC(COc3ccc(F)cn3)CCCC2C)c1 (centres undefined)

row,Structure (SMILES),Ki
1,Cc1cc(OCC2CCCC(C)N(C(=O)c3ccccc3-n3nccn3)C2)ccc1F (centres undefined),50 nM

# Reference: ChEMBL document CHEMBL3639372, “Disubstituted azepan orexin receptor antagonists” (2014)
